Reference: patent US9409884B2 (Rigel Pharmaceuticals, Inc., priority 2012, dated 2016)

Each compound was assayed against AMPK (assay: AMPK activation, enzyme-linked immunosorbent assay). Settings: Table 13, compounds of Table 6.
Format: biochemical
Summary of the method: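 AMPK activation by test compounds was measured by enzyme-linked immunosorbent assay.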

Structure (SMILES) | EC50
CS(=O)(=O)c1ccc(CN2CCN(C(=O)c3ccc4oc(C(=O)NC5CCN(Cc6ccc(C(F)(F)F)cc6)CC5)cc4c3)CC2)cc1 [Compound 6-144, 5-(4-(4-(methylsulfonyl)benzyl)piperazine-1-carbonyl)-N-(1-(4-(trifluoromethyl)benzyl)piperidin-4-yl)benzofuran-2-carboxamide] | < 100 nM
CS(=O)(=O)c1ccc(CN2CCN(C(=O)c3ccc4oc(C(=O)NC5CCN(Cc6ccc(C#N)c(F)c6)CC5)cc4c3)CC2)cc1 [Compound 6-145, N-(1-(4-cyano-3-fluorobenzyl)piperidin-4-yl)-5-(4-(4-(methylsulfonyl)benzyl)piperazine-1-carbonyl) benzofuran-2-carboxamide] | < 100 nM
CS(=O)(=O)c1ccc(CN2CCN(C(=O)c3ccc4oc(C(=O)NC5CCN(Cc6cccc(OC(F)(F)F)c6)CC5)cc4c3)CC2)cc1 [Compound 6-146, 5-(4-(4-(methylsulfonyl)benzyl)piperazine-1-carbonyl)-N-(1-(3-(trifluoromethoxy)benzyl)piperidin-4-yl)benzofuran-2-carboxamide] | < 100 nM
CS(=O)(=O)c1ccc(CN2CCN(C(=O)c3ccc4oc(C(=O)NC5CCN(Cc6cccc(C(F)(F)F)c6)CC5)cc4c3)CC2)cc1 [Compound 6-147, 5-(4-(4-(methylsulfonyl)benzyl)piperazine-1-carbonyl)-N-(1-(3-(trifluoromethyl)benzyl)piperidin-4-yl)benzofuran-2-carboxamide] | < 100 nM
CS(=O)(=O)c1ccc(CN2CCN(C(=O)c3ccc4oc(C(=O)NC5CCN(Cc6ccc(-n7cccn7)cc6)CC5)cc4c3)CC2)cc1 [Compound 6-148, N-(1-(4-(1H-pyrazol-1-yl)benzyl)piperidin-4-yl)-5-(4-(4-(methylsulfonyl)benzyl)piperazine-1-carbonyl) benzofuran-2-carboxamide] | < 100 nM
CS(=O)(=O)c1cccc(CN2CCN(C(=O)c3ccc4oc(C(=O)NC5CCN(Cc6ccc(C(F)(F)F)cc6)CC5)cc4c3)CC2)c1 [Compound 6-149, 5-(4-(3-(methylsulfonyl)benzyl)piperazine-1-carbonyl)-N-(1-(4-(trifluoromethyl)benzyl)piperidin-4-yl)benzofuran-2-carboxamide] | < 100 nM
CS(=O)(=O)c1cccc(CN2CCN(C(=O)c3ccc4oc(C(=O)NC5CCN(Cc6ccc(C#N)c(F)c6)CC5)cc4c3)CC2)c1 [Compound 6-150, N-(1-(4-cyano-3-fluorobenzyl)piperidin-4-yl)-5-(4-(3-(methylsulfonyl)benzyl)piperazine-1-carbonyl) benzofuran-2-carboxamide] | < 100 nM
CS(=O)(=O)c1cccc(CN2CCN(C(=O)c3ccc4oc(C(=O)NC5CCN(Cc6cccc(OC(F)(F)F)c6)CC5)cc4c3)CC2)c1 [Compound 6-151, 5-(4-(3-(methylsulfonyl)benzyl)piperazine-1-carbonyl)-N-(1-(3-(trifluoromethoxy)benzyl)piperidin-4-yl)benzofuran-2-carboxamide] | < 100 nM
CS(=O)(=O)c1cccc(CN2CCN(C(=O)c3ccc4oc(C(=O)NC5CCN(Cc6ccc(-n7cccn7)cc6)CC5)cc4c3)CC2)c1 [Compound 6-153, N-(1-(4-(1H-pyrazol-1-yl)benzyl)piperidin-4-yl)-5-(4-(3-(methylsulfonyl)benzyl)piperazine-1-carbonyl) benzofuran-2-carboxamide] | < 100 nM
COc1ccc(CN2CCC(NC(=O)c3cc4cc(C(=O)N5CCN(Cc6ccc(S(C)(=O)=O)cc6)CC5)ccc4o3)CC2)cc1F [Compound 6-154, N-(1-(3-fluoro-4-methoxybenzyl)piperidin-4-yl)-5-(4-(4-(methylsulfonyl)benzyl)piperazine-1-carbonyl) benzofuran-2-carboxamide] | < 100 nM
CS(=O)(=O)c1ccc(OC2CCN(C(=O)c3ccc4oc(C(=O)N[C@@H]5CCN(Cc6ccc(OC(F)(F)F)cc6)C[C@H]5F)cc4c3)CC2)cc1 [Compound 6-155, N-((3,4-trans)-3-fluoro-1-(4-(trifluoromethoxy)benzyl)piperidin-4-yl)-5-(4-(4-(methylsulfonyl)phenoxy)piperidine-1-carbonyl) benzofuran-2-carboxamide] | < 100 nM

Next, values leading:

EC50 | Structure (SMILES)
< 100 nM | CS(=O)(=O)c1ccc(CN2CCN(C(=O)c3ccc4oc(C(=O)NC5CCN(Cc6ccc(OC(F)(F)C(F)F)cc6)CC5)cc4c3)CC2)cc1 [Compound 6-156, 5-(4-(4-(methylsulfonyl)benzyl)piperazine-1-carbonyl)-N-(1-(4-(1,1,2,2-tetrafluoroethoxy)benzyl)piperidin-4-yl)benzofuran-2-carboxamide]
< 100 nM | CS(=O)(=O)c1ccc(CN2CCN(C(=O)c3ccc4oc(C(=O)NC5CCN(Cc6cccc(OC(F)(F)C(F)F)c6)CC5)cc4c3)CC2)cc1 [Compound 6-157, 5-(4-(4-(methylsulfonyl)benzyl)piperazine-1-carbonyl)-N-(1-(3-(1,1,2,2-tetrafluoroethoxy)benzyl)piperidin-4-yl)benzofuran-2-carboxamide]
100 to 1000 nM | CS(=O)(=O)c1ccc(CN2CCN(C(=O)c3ccc4oc(C(=O)NC5CCN(Cc6ccc(OC(F)(F)F)c(Cl)c6)CC5)cc4c3)CC2)cc1 [Compound 6-158, N-(1-(3-chloro-4-(trifluoromethoxy)benzyl)piperidin-4-yl)-5-(4-(4-(methylsulfonyl)benzyl)piperazine-1-carbonyl) benzofuran-2-carboxamide]
1000 to 10000 nM | CS(=O)(=O)c1ccc(CN2CCN(C(=O)c3ccc4oc(C(=O)NC5CCN(Cc6ccc(S(=O)(=O)N7CCCC7)cc6)CC5)cc4c3)CC2)cc1 [Compound 6-159, 5-(4-(4-(methylsulfonyl)benzyl)piperazine-1-carbonyl)-N-(1-(4-(pyrrolidin-1-ylsulfonyl)benzyl)piperidin-4-yl)benzofuran-2-carboxamide]
< 100 nM | COc1ccc(CN2CCC(NC(=O)c3cc4cc(C(=O)N5CCN(Cc6ccc(S(=O)(=O)N7CCCC7)cc6)CC5)ccc4o3)CC2)cc1F [Compound 6-160, N-(1-(3-fluoro-4-methoxybenzyl)piperidin-4-yl)-5-(4-(4-(pyrrolidin-1-ylsulfonyl)benzyl)piperazine-1-carbonyl)benzofuran-2 - carboxamide]
< 100 nM | CCNS(=O)(=O)c1ccc(CN2CCN(C(=O)c3ccc4oc(C(=O)NC5CCN(Cc6ccc(OC)c(F)c6)CC5)cc4c3)CC2)cc1 [Compound 6-161, 5-(4-(4-(N-ethylsulfamoyl)benzyl)piperazine-1-carbonyl)-N-(1-(3-fluoro-4-methoxybenzyl)piperidin-4-yl)benzofuran-2-carboxamide]
< 100 nM | COc1ccc(CN2CCC(NC(=O)c3cc4cc(C(=O)N5CCN(Cc6ccc(S(=O)(=O)N(C)C)cc6)CC5)ccc4o3)CC2)cc1F [Compound 6-162]
< 100 nM | COc1ccc(CN2CCC(NC(=O)c3cc4cc(C(=O)N5CCN(Cc6ccc(S(=O)(=O)N7CCOCC7)cc6)CC5)ccc4o3)CC2)cc1F [Compound 6-163, N-(1-(3-fluoro-4-methoxybenzyl)piperidin-4-yl)-5-(4-(4-(morpholinosulfonyl)benzyl)piperazine-1-arbonyl) benzofuran-2-carboxamide]
< 100 nM | COc1ccc(CN2CCC(NC(=O)c3cc4cc(C(=O)N5CCC(Oc6ccc(S(C)(=O)=O)cc6)CC5)ccc4o3)CC2)cc1 [Compound 6-164, N-(1-(4-methoxybenzyl)piperidin-4-yl)-5-(4-(4-(methylsulfonyl)phenoxy)piperidine-1-carbonyl) benzofuran-2-carboxamide]
